Reference: US20150005237A1, “PEPTIDIC INHIBITOR OF SIGNAL TRANSMISSION FROM G-ALPHA-S TO G-ALPHA-I-COUPLED RECEPTOR CASCADES” (UNIVERSITÄT INNSBRUCK, priority 2011, published 2015)
Where no end group is shown, it is not given here.

How the values were obtained:
Format in all cases: cell-based
[1] = test system: Erk1/2 phosphorylation in δOR-HEK293 cells; test: MAPK-phosphorylation assay (Erk1/2) in δOR-HEK293 cells; conditions: for SNC80-induced Erk1/2 phosphorylation (amplitude and duration): pre-treatment before SNC80
Protocol: δOR-HEK293 cells were grown in 12 or 24 well plate formats (DMEM supplemented with 10% FBS). Either 24 or 48 hours after splitting or co-transfection in overexpression studies [transfected with constructs encoding the regulatory (RIIβ) or catalytic subunits (PKAc) of PKA] confluent cells were treated with inhibitors (KT5720 for 60 minutes, pertussis toxin for 16 hours), chemical modulators (forskolin, 6-MBC-cAMP, Sp-5,6-DCI-cBIMPS, Sp-8-PIP-cAMPs, 2-Cl-8-MA-cAMP [all for 15 minutes] or Rp-cAMP for 60 minutes) and/or the δOR ligand SNC80 (for either 3, 6, 10 or 15 minutes). cAMP analogs purchased from Biolog (6-MBC-cAMP, #M012; Sp-5,6-DCI-cBIMPS, #D014; Sp-8-PIP-cAMPs, #P005, 2-Cl-8-MA-cAMP, #C080; Rp-cAMP, #A002S) (see Bobrovskaya et al., Cell. Signal. 19, 1141-1149 (2007); Nguyen et al., Cell. Signal. 16, 1141-1151 (2004); Maronde et al., J. Pineal Res. 27, 170-182 (1999); Ogreid et al., Eur. J. Biochem. 181, 19-31 (1989); Poppe et al., Nat. Methods 5, 277-278 (2008)).
Following treatments at 37° C. for 3, 6, 10 or 15 minutes the reactions were stopped by direct addition of Laemmli sample buffer. Equal amounts of protein (lysates normalized to loading control proteins) were subjected to polyacrylamide gel electrophoresis followed by immunoblotting (IB). To analyze the phosphorylation of Erk1/2 we applied the Phospho-p44/42 MAP Kinase antibody (Cell Signaling Technology, #9101). Quantitative densitometry of immuno blot bands was performed using the program ImageQuant 5.2 (Molecular Dynamics).

[2] = test system: PKA kinase activity; test: CREB phosphorylation monitoring of PKA kinase activity; conditions: conditions used for the Erk1/2 experiments
Protocol: We also tested the impact of R:Gαi complex formation on the evolutionary conserved route of signal transmission from Gαi to MAPK9. […] Pre-treatment with forskolin potentiated the SNC80-induced Erk1/2 phosphorylation (FIG. 2c). […] To exclude the possibility that PKA kinase activity could account for this potentiation, we pre-treated cells with the PKA inhibitor KT5720 (unless noted otherwise, all subsequent experiments were carried out in the presence of this kinase activity inhibitor). We confirmed that KT5720 inhibits PKA kinase activity under the conditions used by monitoring CREB phosphorylation (activated independently of Gαi signalling).

[3] = target: T1, RIIβ-RlucF[1]:PKAc-RlucF[2] complex (Rattus norvegicus, UniProt P12369); test: Renilla luciferase PCA of PKA holoenzyme dissociation in HEK293T cells; conditions: HEK293T cells stably expressing the PKA reporter
T1 construct: Renilla luciferase PCA fragment F[1]; expressed in transfected cells
T1 sequence (P12369 whole entry, the tested form may be a part, one chain of several): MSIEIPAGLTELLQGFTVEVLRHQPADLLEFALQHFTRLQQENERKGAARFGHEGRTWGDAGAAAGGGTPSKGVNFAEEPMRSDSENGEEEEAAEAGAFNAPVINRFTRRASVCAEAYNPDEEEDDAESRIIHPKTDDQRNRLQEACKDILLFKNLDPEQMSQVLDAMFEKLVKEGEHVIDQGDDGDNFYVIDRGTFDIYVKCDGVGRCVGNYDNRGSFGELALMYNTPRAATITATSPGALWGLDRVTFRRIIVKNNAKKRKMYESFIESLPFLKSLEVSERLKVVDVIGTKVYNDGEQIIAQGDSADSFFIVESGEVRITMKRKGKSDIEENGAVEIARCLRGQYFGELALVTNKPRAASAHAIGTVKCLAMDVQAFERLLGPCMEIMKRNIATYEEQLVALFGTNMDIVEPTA
Protocol: We have generated a stable HEK293T cell line coexpressing the PCA fusion proteins RIIβ-Rluc-F[1] and PKAc-RlucF[2], as previously described. All cells were grown in DMEM supplemented with 10% FBS. We treated confluent HEK293T cells (stably expressing the PKA reporter) grown in 24 well plate format with varying concentrations and combinations of cAMP analogs 6-MBC-cAMP and Sp-5,6-DCI-cBIMPS (15 min; Biolog, Germany). We pretreated confluent HEK293T cells (stably expressing the PKA reporter) grown in 24 well plate format with 250 μM of Rp-cAMP (60 minutes) or with 6-MBC-cAMP and Sp-5,6-DCI-cBIMPS (=RII selective, each 50 μM; 15 min). We pretreated confluent HEK293T cells (stably expressing the PKA reporter) grown in 24 well plate format for 30 minutes with TAT or Reggai fusion peptides (˜3 μM) followed by exposure to forskolin (100 μM; 15 min). Following treatment, growth medium was exchanged and cells were resuspended in 350 μl of PBS. 100 μl of cell suspensions were transferred to 96-well plates and subjected to bioluminescence analysis using the LMaxTMII384 luminometer (Molecular Devices). Rluc bioluminescence signals were integrated for 10 seconds following addition of the Rluc substrate benzyl-coelenterazine (5 μM; Nanolight). […]

[4] = test system: trimeric Gαi:βγ complex; test: BRET assay of Gαi1:Gγ2 conformational rearrangement in δOR-HEK293 cells
Source text: δOR-HEK293 cells grown in DMEM supplemented with 10% FBS were transiently transfected with the following constructs: For measurements of the interactions of G protein subunits among each other and with the receptor we transfected Gαi1 with the Renilla luciferase (Rluc) inserted at amino acid position 91 and the UV-shifted GFP variant GFP10 (substitutions: P64L, S147P, and S202P) fused to the C-terminus of […] or the UV-shifted variant GFP2 (substitution: F64L) fused to the C-terminus of the δOR. In overexpression studies, we coexpressed regulatory (RIIβ) or catalytic subunits (PKAc) of PKA. […] Total fluorescence and bioluminescence were evaluated for each well using a FlexStation2 (Molecular Devices) and Mithras LB 940 (Berthold Technologies), respectively. uvGFP fluorescence was excited at 400 nm and read at 515 nm. Fluorescence values were corrected by subtracting the auto-fluorescence of cells not expressing uvGFP. BRET between Rluc and GFP2 or GFP10 was measured after the addition of 5 μM Rluc substrate DeepBlueC (bisdeoxy-coelenterazine, PerkinElmer, Lifescience). BRET signals were derived from the emission detected with the energy acceptor filter (515±15 nm; GFP2/10) divided by the emission detected with the energy donor filter (410±40 nm; Rluc/Rluc3). […]

[5] = test system: R:Gαi3 complexes; test: cAMP agarose precipitation of R:Gαi3 complexes from COS7 cells; conditions: forskolin pre-treatment 15 minutes, 2AHA-cAMP-coupled agarose beads
Protocol: HEK293, U2OS cells and total brains of mice were homogenized using a Potter S (B. Braun Biotech International) with 15 strikes (lysis buffer: 10 mM sodium phosphate pH 7.2, 150 mM NaCl, 0.05% Triton X100 supplemented with standard protease inhibitors). We clarified the lysate (13000 rpm, 15 min) and precipitated PKA regulatory subunit associated protein complexes with PKA selective 8-AHA-cAMP agarose and Rp-8-AHA-cAMP agarose resin (Biolog, […]) for two hours at 4° C. As negative control experiment we added excess of cAMP (5 mM) to the brain lysates to mask the cAMP binding sites in the R subunits for precipitation. Resin associated proteins were washed four times with lysis buffer and eluted with Laemmli sample buffer. Equal amounts of protein (lysates normalized to loading control proteins) were subjected to polyacrylamide gel electrophoresis followed by immunoblotting with indicated antibodies. We performed densitometric quantification of RIIβ, PKAc and Gαi3 (in each case normalized on the most abundant precipitated protein from the same immunoblot (n=3) to compare complex formation and fold enrichment between holoenzyme (precipitated with Rp-8-AHA-cAMP) and activated R complexes (precipitated with 8-AHA-cAMP).
We then tested whether pre-dissociating endogenous R/Reg and PKAc/Cat subunits would change the stoichiometry of R:Gαi3 or R:PDK1 complexes. […]

[6] = test system: Gαs- to Gαi-cascades; test: Reggai peptide applied in living HEK293 cells: signal transmission from Gαs- to Gαi-cascades; conditions: HEK293 cell line
Source text: The present inventors identified and successfully applied the Reggai peptide directly in the living cells, in particular cell culture, HEK293 cell line, and changed the original and conserved Reggai sequence in a model organism (budding yeast) to prevent signal transmission from Gαs- to Gαi-cascades. The Reggai peptide had no effect on sole activation of either cascade, just in the case of simultaneous activation of both types of receptors the Gαs triggered and PKA-mediated elevation of Gαi activities was abolished. In the mammalian system the present inventors used biochemical tools to measure changes of cAMP levels, G protein activities and MAPK activation downstream of Gαi-coupled receptors upon formation of the dynamic interaction between PKA and Gαi.

Compound: 6-MBC-cAMP
- SNC80-induced Erk1/2 phosphorylation (amplitude and duration) [1]: potentiated

Compound: CNc1nc2c(N)nc(Cl)nc2n1C1O[C@@H]2COP(=O)([O-])O[C@H]2[C@H]1O.[Na+] (stereo partly drawn) [2-Cl-8-MA-cAMP]
- SNC80-induced Erk1/2 phosphorylation (amplitude and duration) [1]: no effect

Compound: Nc1ncnc2c1nc(N1CCCCC1)n2[C@@H]1O[C@@H]2COP(=O)(O)O[C@H]2[C@H]1O [8-PIP-cAMP]
- SNC80-induced Erk1/2 phosphorylation (amplitude and duration) [1]: no effect

Compound: CCCCCCOC(=O)[C@]1(O)C[C@@H]2O[C@@]1(C)n1c3ccccc3c3c4c(c5c6ccccc6n2c5c31)C(=O)NC4 [KT5720]
- PKA kinase activity (CREB phosphorylation) [2]: inhibits

Compound: Nc1ncnc2c1ncn2[C@@H]1O[C@@H]2COP(O)(=S)O[C@H]2[C@H]1O (stereo partly drawn) [Rp-cAMP]
- SNC80+RegII subunit activator and SNC80+forskolin mediated Erk1/2 phosphorylation ([1]; pre-treatment 250 μM, 60 minutes): decreased
- PKA holoenzyme dissociation [3]: prevented

Compound: C=CCN1C[C@H](C)N([C@H](c2ccc(C(=O)N(CC)CC)cc2)c2cccc(OC)c2)C[C@H]1C [SNC80]
- Erk1/2 phosphorylation ([1]; agonist alone): large but transient increase
- BRET between Gαi1 and Gγ2 ([4]; agonist alone): decrease

Compound: OC1C2OP(O)(=S)OCC2OC1n1cnc2cc(Cl)c(Cl)cc21 (stereo not drawn) [Sp-5,6-DCI-cBIMPS]
- SNC80-induced Erk1/2 phosphorylation (amplitude and duration) [1]: potentiated

Compound: C=C[C@@]1(C)CC(=O)[C@]2(O)[C@@]3(C)[C@@H](O)CCC(C)(C)[C@@H]3[C@H](O)[C@H](OC(C)=O)[C@@]2(C)O1 [forskolin]
- conformation of the trimeric G-protein complex ([4]; treatment alone, without SNC80): no effect
- fold enrichment of R:Gαi3 complexes [5]: 3.8 (SD±0.99) fold

Compound: QGDSADSFFIVESGE (not fully specified; listed as Homo sapiens) [Reggai peptide, PKA RIIβ-derived 15 amino acid peptide; applied to cells as fusion with GST, TAT and Flag]
- potentiation of SNC80-mediated Erk1/2 phosphorylation using RII/RegII subunit activators ([1]; fusion peptides ~3 μM, 30 minutes): prevented
- sole activation of either cascade (Gαs or Gαi) ([6]; only one cascade activated): no effect
- Gαs triggered and PKA-mediated elevation of Gαi activities ([6]; simultaneous activation of both types of receptors): abolished
- PKA holoenzyme dissociation [3]: Neither Reggai nor TAT control peptide pre-treatment of HEK293T cells had any effect
